According to patent US20200291082A1, “PREVENTION AND TREATMENT OF GRAFT-VERSUS-HOST-DISEASE WITH DEFENSINS” (priority 2017, published 2020):
“Also recorded” adds a separate entry of the source. No end group written: not given here.

Columns and labels:
[1] = system: Dextran Sodium Sulphate induced colitis; assay: prophylactic murine 10-day oral Dextran Sodium Sulphate induced colitis model, oral hBD2 versus oral prednisolone (Example 2); type: in vivo, C57BL/6 mice; conditions: for histological score, compared with prednisolone: all three oral hBD2 dose groups versus prednisolone 1 mg/kg; for body weight loss / body weight change: all three oral hBD2 dose levels (0.05, 0.5, 5 mg/kg twice per day), 10 days; for histological score: versus vehicle, Prednisolone 1 mg/kg twice per day p.o., oral hBD2 all doses
Protocol: Anti-inflammatory effect of oral administration of hBD2 versus oral prednisolone in a prophylactic murine, 10-day, oral Dextran Sodium Sulphate induced colitis model.
50 male C57BL/6 mice housed in groups of five per cage were allocated to 5 different treatment groups. All animals had their drinking water supplemented with DSS 2% for 7 days to induce colitis resulting in significant inflammation and injury of the colonic tissue. The animals were treated with oral hBD2 dosed at three different dose levels twice per day or prednisolone 1 mg/kg twice per day or PBS as vehicle for 10 days.
A disease activity index (DAI) scoring system was applied for clinical assessment (FIG. 7). The animals were sacrificed on day 10 and colon removed for histological assessment employing a histological scoring system (FIG. 8).

[2] = system: Dextran Sodium Sulphate induced colitis; assay: prophylactic murine 7-day Dextran Sodium Sulphate induced colitis model, oral and s.c. hBD2 versus oral cyclosporine (Example 4); type: in vivo, C57BL/6 mice
Text: Anti-inflammatory effect of oral and s.c. administration of hBD2 versus oral cyclosporine in a prophylactic, murine, 7-day, Dextran Sodium Sulphate induced colitis model.
80 male C57BL/6 mice housed in groups of five per cage were allocated to 7 different treatment groups. All animals had their drinking water supplemented with DSS 3% for 7 days to induce colitis characterized by epithelial damage, disruption of crypt architecture and a moderate inflammation characterized by accumulation of mononuclears and neutrophils in mucosa and submucosa. The animals were treated with oral hBD2 dosed at 0.6 mg/kg BID or 0.4 mg/kg TID; hBD2 dosed s.c. at 0.15 mg/kg BID or 0.1 mg/kg TID; or cyclosporine 50 mg/kg OD or water for 7 days.
Clinical assessment was conducted as per a scoring system (0=no blood in stool; 1=evidence of blood in stool and 2=severe bleeding). The animals were sacrificed on day 7 and colon removed for histological assessment.

[3] = system: bacteria at the surface of the intestinal mucosa; assay: anti microbial effect of orally administered defensins, mucin immunostaining and localization of bacteria by FISH (Example 16); type: in vivo; conditions: compared with mice on low fat or western diet
Protocol: Anti microbial effect of orally administered defensins (HD5 and hBD-2).
Mucus immunostaining was paired with fluorescent in situ hybridization (FISH), as previously described in order to analyze bacteria localization at the surface of the intestinal mucosa. Briefly, colonic tissues (proximal colon, 2nd cm from the cecum) without fecal material were placed in methanol-Carnoy's fixative solution (60% methanol, 30% chloroform, 10% glacial acetic acid) for a minimum of 3 hours at room temperature. Tissues were then washed in methanol 2×30 min, ethanol 2×15 min, ethanol/xylene (1:1), 15 min and xylene 2×15 min, followed by embedding in Paraffin with a vertical orientation. Five pm sections were performed and dewax by preheating at 60° C. for 10 min, followed by xylene 60° C. for 10 min, xylene for 10 min and 99.5% ethanol for 10 minutes. Hybridization step was performed at 50° C. overnight with EUB338 probe (5′-GCTGCCTCCCGTAGGAGT-3′, with a 5′ labeling using Alexa 647) diluted to a final concentration of 10 μg/mL in hybridization buffer (20 mM Tris-HCl, pH 7.4, 0.9 M NaCl, 0.1% SDS, 20% formamide). After washing 10 min in wash buffer (20 mM Tris-HCl, pH 7.4, 0.9 M NaCl) and 3×10 min in PBS, PAP pen (Sigma-Aldrich) was used to mark around the section and block solution (5% fetal bovine serum in PBS) was added for 30 min at 4° C. […]

[4] = all four hBD2 dosing groups (oral 0.6 mg/kg BID, 0.4 mg/kg TID; s.c. 0.15 mg/kg BID, 0.1 mg/kg TID), cyclosporine 50 mg/kg OD, 7 days

With “human beta defensin 2 (GIGDPVTCLKSGAICHPVFCPRRYKQIGTCGLPGTKCCKKP; not fully specified (bridges); ends and bridges not checked; listed as Homo sapiens) [hBD2]” the “disease activity index score, compared with prednisolone” value ([1]; FIG. 11, orally administered hBD2 versus prednisolone 1 mg/kg) was “statistically significant superiority”, the “histological score, compared with prednisolone” value [1] was “significantly better than Prednisolone” and the “histological score, compared with prednisolone” value ([1]; listed as HBD2) was “on par with prednisolone 1 mg/kg”. The “body weight loss / body weight change” value [1] was “dramatically reduced loos of body weight”, the “body weight loss / body weight change” value ([1]; listed as HBD2hBD2) was “weight preserving effect” and the body weight loss ([1]; high dose group hBD2 5 mg/kg BID oral) was “most pronounced”. For the same substance, the “disease activity index (DAI)” value ([1]; high dose hBD2 5 mg/kg BID oral, compared with lower doses and Prednisolone) was “significantly better effect on DAI”, the “disease activity index (DAI)” value ([1]; two lower dose levels of oral hBD2 (0.05, 0.5 mg/kg twice per day)) was “statistically significant effect on DAI on par with Prednisolone” and the histological score [1] was “statistically significant effect on histological score”. For the same substance, the histological score ([1]; listed as HBD2) was “statistical significant effect”, the “clinical score, s.c. versus oral dosing” value ([2]; FIG. 15) was “seemed more efficacious than oral dosing” and the clinical scores [2, 4] was “highly statistically significant improvement; also recorded: statistical significant effect of hBD2 on par with cyclosporine”. For the same substance, the “maintenance of colon length” value [2, 4] was “highly statistically significant improvement; also recorded: statistical significant effect of hBD2 on par with cyclosporine”, the “clinical score, TID versus BID dosing” value ([2]; both administration routes) was “more efficacious than BID dosing; also recorded: superiority of TID dosing of hBD2 over BID dosing” and the “lysis zone, distance between intestinal wall and bacterial population” value [3] was “profound effect on the distance”.
